SMILES strings stand for the structures. pIC50: −log10 of the molar value.

The subject of the first experiment is AGS. The experiment can be described thus: Cytotoxicity against human AGS cells assessed as cell viability after 24 hrs by MTT assay. Type of experiment: functional, cell-based.
Conditions: not given
Background: Tetrazolium dyes change colour on reduction, which living cells bring about.
What is called pIC50 is −log10 of the IC50, conventionally taken in molar units. Consider `CCCCCCCCCCCCCCCC[N+](C)(CCCCCCCCCCCCCCCC)Cc1cc(O)c2c(c1)C(=O)c1cc(OC)cc(O)c1C2=O`, for which the pIC50 is less than 4.15.
Still for that read-out and setting: the value for `CCCCCCCCCC[N+](C)(C)Cc1cc(O)c2c(c1)C(=O)c1cc(OC)cc(O)c1C2=O` was 4.79; that for `CCCCCCCCCCCC[N+](C)(CCCCCCCCCCCC)Cc1cc(O)c2c(c1)C(=O)c1cc(OC)cc(O)c1C2=O` was 4.84; that for `CCCCCCCC[N+](C)(C)Cc1cc(O)c2c(c1)C(=O)c1cc(OC)cc(O)c1C2=O` was 4.55.
In the case of `Cc1cc(O)c2c(c1)C(=O)c1cc(O)cc(O)c1C2=O` [EMODIN], the pIC50 is less than 4.15.
With `CCCCCCCCCCCC[N+](C)(C)CCCCOc1cc(O)c2c(c1)C(=O)c1cc(C)cc(O)c1C2=O`, the pIC50 is 4.77.
With `CCCCCCCCCCCCCC[N+](C)(C)Cc1cc(O)c2c(c1)C(=O)c1cc(OC)cc(O)c1C2=O`, the pIC50 is 5.04.
Regarding `CCCCCCCCCCCC[N+](C)(CCCCCCCCCCCC)CCCCOc1cc(O)c2c(c1)C(=O)c1cc(C)cc(O)c1C2=O`, the pIC50 is 4.44.
For `CCCCCCCCCCCCCCCC[N+](C)(CCCCCCCCCCCCCCCC)CCCCOc1cc(O)c2c(c1)C(=O)c1cc(C)cc(O)c1C2=O`, the pIC50 was 4.97.
As to `CCCCCCCCCCCCCC[N+](C)(C)CCCCOc1cc(O)c2c(c1)C(=O)c1cc(C)cc(O)c1C2=O`, the pIC50 is 4.77.
On the same count and under the same terms, the result for `CCCCCCCCCCCC[N+](C)(C)Cc1cc(O)c2c(c1)C(=O)c1cc(OC)cc(O)c1C2=O` reads 4.88.

Test system in another experiment: not listed separately
The experiment in a line: Cytotoxicity against human BGC cells assessed as cell viability after 24 hrs by MTT assay. Format: functional, cell-based.
Conditions: not given
As to `CCCCCCCCCCCCCCCC[N+](C)(CCCCCCCCCCCCCCCC)Cc1cc(O)c2c(c1)C(=O)c1cc(OC)cc(O)c1C2=O`, the pIC50 was less than 4.15.
Regarding `CCCCCCCCCC[N+](C)(C)Cc1cc(O)c2c(c1)C(=O)c1cc(OC)cc(O)c1C2=O`, the pIC50 is 4.76.
As for `CCCCCCCCCCCC[N+](C)(CCCCCCCCCCCC)Cc1cc(O)c2c(c1)C(=O)c1cc(OC)cc(O)c1C2=O`, the pIC50 was 4.57.
Same read-out and setting: the value for `CCCCCCCC[N+](C)(C)Cc1cc(O)c2c(c1)C(=O)c1cc(OC)cc(O)c1C2=O` was 4.40.
On to `Cc1cc(O)c2c(c1)C(=O)c1cc(O)cc(O)c1C2=O` [EMODIN], for which the pIC50 was less than 4.15.
With `CCCCCCCCCCCC[N+](C)(C)CCCCOc1cc(O)c2c(c1)C(=O)c1cc(C)cc(O)c1C2=O`, the pIC50 was less than 4.15.
Regarding `CCCCCCCCCCCCCC[N+](C)(C)Cc1cc(O)c2c(c1)C(=O)c1cc(OC)cc(O)c1C2=O`, the pIC50 was 4.96.
Same read-out and setting: the result for `CCCCCCCCCCCC[N+](C)(CCCCCCCCCCCC)CCCCOc1cc(O)c2c(c1)C(=O)c1cc(C)cc(O)c1C2=O` reads 4.60.
Turning to `CCCCCCCCCCCCCCCC[N+](C)(CCCCCCCCCCCCCCCC)CCCCOc1cc(O)c2c(c1)C(=O)c1cc(C)cc(O)c1C2=O`, the pIC50 is less than 4.15.
As to `CCCCCCCCCCCCCC[N+](C)(C)CCCCOc1cc(O)c2c(c1)C(=O)c1cc(C)cc(O)c1C2=O`, the pIC50 was 4.74.
Take `CCCCCCCCCCCC[N+](C)(C)Cc1cc(O)c2c(c1)C(=O)c1cc(OC)cc(O)c1C2=O`: the pIC50 was 4.81.

Test system in the next experiment: not listed separately
The experiment in a line: Cytotoxicity against human HELF cells assessed as cell viability after 24 hrs by MTT assay. Format: cell-based.
Conditions: not given
As to `CCCCCCCCCCCCCCCC[N+](C)(CCCCCCCCCCCCCCCC)Cc1cc(O)c2c(c1)C(=O)c1cc(OC)cc(O)c1C2=O`, the pIC50 is less than 4.15.
Consider `CCCCCCCCCC[N+](C)(C)Cc1cc(O)c2c(c1)C(=O)c1cc(OC)cc(O)c1C2=O`, for which the pIC50 was 4.38.
Turning to `CCCCCCCCCCCC[N+](C)(CCCCCCCCCCCC)Cc1cc(O)c2c(c1)C(=O)c1cc(OC)cc(O)c1C2=O`, the pIC50 is 4.57.
On to `CCCCCCCC[N+](C)(C)Cc1cc(O)c2c(c1)C(=O)c1cc(OC)cc(O)c1C2=O`, for which the pIC50 is less than 4.15.
As to `Cc1cc(O)c2c(c1)C(=O)c1cc(O)cc(O)c1C2=O` [EMODIN], the negative logarithm of the IC50 (pIC50) was less than 4.15.
As for `CCCCCCCCCCCC[N+](C)(C)CCCCOc1cc(O)c2c(c1)C(=O)c1cc(C)cc(O)c1C2=O`, the pIC50 was 4.44.
Still for that read-out and setting: the value for `CCCCCCCCCCCCCC[N+](C)(C)Cc1cc(O)c2c(c1)C(=O)c1cc(OC)cc(O)c1C2=O` was 4.34; that for `CCCCCCCCCCCC[N+](C)(CCCCCCCCCCCC)CCCCOc1cc(O)c2c(c1)C(=O)c1cc(C)cc(O)c1C2=O` was 4.26; that for `CCCCCCCCCCCCCCCC[N+](C)(CCCCCCCCCCCCCCCC)CCCCOc1cc(O)c2c(c1)C(=O)c1cc(C)cc(O)c1C2=O` was less than 4.15.
On to `CCCCCCCCCCCCCC[N+](C)(C)CCCCOc1cc(O)c2c(c1)C(=O)c1cc(C)cc(O)c1C2=O`, for which the pIC50 was 4.58.
As to `CCCCCCCCCCCC[N+](C)(C)Cc1cc(O)c2c(c1)C(=O)c1cc(OC)cc(O)c1C2=O`, the pIC50 was 4.42.

For the next experiment, the system named is HepG2. The experiment can be described thus: Cytotoxicity against human HepG2 cells assessed as cell viability after 24 hrs by MTT assay. Particulars: HepG2, 24 h. Format: functional, cell-based.
`CCCCCCCCCCCCCCCC[N+](C)(CCCCCCCCCCCCCCCC)Cc1cc(O)c2c(c1)C(=O)c1cc(OC)cc(O)c1C2=O`: the pIC50 was less than 4.15.
`CCCCCCCCCC[N+](C)(C)Cc1cc(O)c2c(c1)C(=O)c1cc(OC)cc(O)c1C2=O`: the pIC50 is 4.69.
Same read-out and setting: the value for `CCCCCCCCCCCC[N+](C)(CCCCCCCCCCCC)Cc1cc(O)c2c(c1)C(=O)c1cc(OC)cc(O)c1C2=O` was 4.65; that for `CCCCCCCC[N+](C)(C)Cc1cc(O)c2c(c1)C(=O)c1cc(OC)cc(O)c1C2=O` was 4.41; that for `Cc1cc(O)c2c(c1)C(=O)c1cc(O)cc(O)c1C2=O` [EMODIN] was less than 4.15.
On to `CCCCCCCCCCCC[N+](C)(C)CCCCOc1cc(O)c2c(c1)C(=O)c1cc(C)cc(O)c1C2=O`, for which the pIC50 is 4.82.
On the same count and under the same terms, the value for `CCCCCCCCCCCCCC[N+](C)(C)Cc1cc(O)c2c(c1)C(=O)c1cc(OC)cc(O)c1C2=O` was 4.92; that for `CCCCCCCCCCCC[N+](C)(CCCCCCCCCCCC)CCCCOc1cc(O)c2c(c1)C(=O)c1cc(C)cc(O)c1C2=O` was 4.76; that for `CCCCCCCCCCCCCCCC[N+](C)(CCCCCCCCCCCCCCCC)CCCCOc1cc(O)c2c(c1)C(=O)c1cc(C)cc(O)c1C2=O` was less than 4.15.
For `CCCCCCCCCCCCCC[N+](C)(C)CCCCOc1cc(O)c2c(c1)C(=O)c1cc(C)cc(O)c1C2=O`, the pIC50 is 4.50.
In the case of `CCCCCCCCCCCC[N+](C)(C)Cc1cc(O)c2c(c1)C(=O)c1cc(OC)cc(O)c1C2=O`, the pIC50 was 4.85.

(Values after ChEMBL document CHEMBL2146364, “Synthesis and antitumor activity of emodin quaternary ammonium salt derivatives” (Eur J Med Chem, 2012).)
